{"source": "patent US20250325531A1", "about": "“TREATMENT OF SYSTOLIC DYSFUNCTION” (MyoKardia, Inc., priority 2024, published 2025)", "key": {"[1]": {"test_system": "patients with stable HFrEF", "test": "TTE pharmacodynamics in SAD cohorts, patients with stable HFrEF", "type": "in vivo, human", "conditions": "Pooled SAD Cohorts 1 and 2", "protocol": "PD assessment was done by transthoracic echocardiography as described in Example 1 above. TTE evaluations of LVSV (derived from LVOT-VTI), LVEF, LVFS, SET, and other parameters were PD assessments at predetermined time points. The patients were on bed rest for 10 minutes before the TTEs were obtained. In Part 2 (MAD), TTEs were usually obtained before the morning dose and/or at 7 hours postdose (i.e., close to the anticipated peak effect based on the PK profile from the healthy volunteer studies).\nFor both Cohorts 1 and 2, the pharmacodynamic effects of Compound I on echocardiographic markers of cardiac structure and function were analyzed by Compound I plasma concentration groups: <2000 ng/ml (low concentration group) and ≥2000 ng/ml (high concentration group) (Table 12)."}, "[2]": {"test": "Food effect on pharmacokinetics, 200 mg as 25 mg tablets, fed vs fasted, healthy volunteers", "type": "in vivo, human", "excerpt": "This example describes a clinical study for establishing, in healthy volunteers, the effect of a high fat, high caloric meal on the PK profile of Compound I, as compared to administration of the drug in the fasted state. The study also was intended to determine the safety and tolerability after a single oral dose of Compound I in the fed and fasted state in healthy volunteers. The measurements of PK, PD, and other clinical parameters were done as described in Example 1 above.\nThis study was an open-label, randomized, two-period cross-over study in healthy volunteers aged 18-55 years. Subjects were screened up to 28 days before the first treatment period. Subjects were admitted to the clinical site on Day −1 (the day before dosing) of Period 1. Approximately half of the subjects randomly received a single dose of Compound I on Day 1 of the first treatment period after the ingestion of a high fat, high caloric breakfast, and the remainder were dosed in the fasted state. Any subject with a predose resting HR ≥95 beats per minute (bpm) was considered ineligible and was not treated. Any subjects with an acute gastrointestinal disorder which could impact drug/food absorption (e.g., vomiting, diarrhea) were rescheduled. Subjects were confined to the clinic until Day 4, and discharged after the 72-hour postdose PK and laboratory samples and vital signs were obtained. After a washout between dosing from 7 to 10 days (or, after consultation with the Investigator, up to 21 days after initial dosing if the subject was unable to attend within the 7 to 10-day window), the subject was admitted for Period 2. The sequence of fed/fasted versus fasted/fed periods was randomized. Subjects returned after the second treatment period for a safety follow-up visit on Day 7 (+1 day).\nIn both treatment periods, Compound I was administered with 240 mL of water. In the fasted state, the subjects fasted for 10 hours before and for 4 hours after the administration of Compound I. Water could have been ingested up to 1 hour before and after 1 hour post dosing. In the fed state, the subjects fasted for 10 hours before and for 4 hours after the ingestion of the meal, but could have ingested water up to 1 hour before and 1 hour after dosing. In the fed state, the subjects started ingesting the high fat, high caloric meal within 30 minutes prior to Compound I administration and finished the meal within 30 minutes. The meal contained approximately 800 to 1000 calories with about 50% of the calories from fat. The meal consisted of approximately 150 calories from protein, 250 calories from carbohydrate, and 500-600 calories from fat. An example of the meal was a breakfast consisting of two eggs fried in butter, two strips of bacon, two slices of buttered toast, 4 ounces of hash brown potatoes, and 8 ounces of whole milk.\nEach subject received two oral doses of 200 mg of Compound I formulated as 25 mg tablets (8 tablets) in a randomized, cross-over fashion, once in the fasted state and the other time after the ingestion of a high fat, high caloric breakfast. There was a washout of between 7 and 21 days between the administrations of the two doses. The Compound I drug substance was a crystalline, free-base, synthetic molecule with a molecular weight of 435.4.\nPlasma drug concentrations were measured as described in Example 1 above. Blood samples to measure Compound I plasma concentration were collected at various time points, including on Day 1 predose (1 hour prior to dosing) and at 1 (±5 min), 2 (±5 min), 3 (±5 min), 4 (═10 min), 5 (±10 min), 6 (±10 min), 9 (±20 min), 12 (±20 min), 18 (±30 min), 24 (±30 min), 36 (±30 min), 48 (±30 min), and 72 (±30 min) hours postdose on both treatment periods.\nTo assess the effect of food on the PK of Compound I, the two one-sided t-test procedure was used to construct 90% CI around the geometric mean ratios (fed/fasted) of plasma AUCinf, AUClast, and Cmax. […]"}, "[3]": {"conditions": "plasma concentration group <2000 ng/mL (n = 7)"}, "[4]": {"conditions": "plasma concentration group ≥2000 ng/mL (n = 12)"}, "[5]": {"conditions": "200 mg, subjects who completed both periods (N = 9)"}, "[6]": {"conditions": "200 mg, subjects who completed both fasted and fed periods (N = 9)"}, "[7]": {"conditions": "single oral 200 mg, Fasted (N = 10)"}, "[8]": {"conditions": "single oral 200 mg, Fed (N = 10)"}}}
{"smiles": "Cn1cc(S(=O)(=O)[C@@](C)(F)C2CCN(C(=O)Nc3ccon3)CC2)c(C(F)F)n1", "note": "[Compound I, (R)-4-(1-((3-(difluoromethyl)-1-methyl-1H-pyrazol-4-yl)sulfonyl)-1-fluoroethyl)-N-(isoxazol-3-yl) piperidine-1-carboxamide]", "values": [{"measurement": "A wave peak, placebo-corrected mean change from Baseline (LS mean difference)", "setting": "[1]; [3]", "value": -3.2, "unit": "cm/s"}, {"measurement": "E wave peak, placebo-corrected mean change from Baseline (LS mean difference)", "setting": "[1]; [3]", "value": -1.1, "unit": "cm/s"}, {"measurement": "E/A ratio, placebo-corrected mean change from Baseline (LS mean difference)", "setting": "[1]; [3]", "value": 0.09}, {"measurement": "E/e′ lateral, placebo-corrected mean change from Baseline (LS mean difference)", "setting": "[1]; [3]", "value": 0.6}, {"measurement": "LVEDD, placebo-corrected mean change from Baseline (LS mean difference)", "setting": "[1]; [3]", "value": 0.2, "unit": "mm"}, {"measurement": "LVEDV, placebo-corrected mean change from Baseline (LS mean difference)", "setting": "[1]; [3]", "value": -2.5, "unit": "mL"}, {"measurement": "LVEF, placebo-corrected mean change from Baseline (LS mean difference)", "setting": "[1]; [3]", "value": 4.1, "unit": "%"}, {"measurement": "LVESD, placebo-corrected mean change from Baseline (LS mean difference)", "setting": "[1]; [3]", "value": "−1.3", "unit": "mm"}, {"measurement": "LVESV, placebo-corrected mean change from Baseline (LS mean difference)", "setting": "[1]; [3]", "value": -4.0, "unit": "mL"}, {"measurement": "LVFS, placebo-corrected mean change from Baseline (LS mean difference)", "setting": "[1]; [3]", "value": 3.1, "unit": "%"}, {"measurement": "LVGLS, placebo-corrected mean change from Baseline (LS mean difference)", "setting": "[1]; [3]", "value": "−1.1", "unit": "%"}, {"measurement": "LVSV, placebo-corrected mean change from Baseline (LS mean difference)", "setting": "[1]; [3]", "value": 1.0, "unit": "mL"}, {"measurement": "SET, placebo-corrected mean change from Baseline (LS mean difference)", "setting": "[1]; [3]", "value": 8, "unit": "ms"}, {"measurement": "e′ lateral, placebo-corrected mean change from Baseline (LS mean difference)", "setting": "[1]; [3]", "value": -1, "unit": "cm/s"}, {"measurement": "A wave peak, placebo-corrected mean change from Baseline (LS mean difference)", "setting": "[1]; [4]", "value": -8.8, "unit": "cm/s"}, {"measurement": "E wave peak, placebo-corrected mean change from Baseline (LS mean difference)", "setting": "[1]; [4]", "value": -1.6, "unit": "cm/s"}, {"measurement": "E/A ratio, placebo-corrected mean change from Baseline (LS mean difference)", "setting": "[1]; [4]", "value": 0.08}, {"measurement": "E/e′ lateral, placebo-corrected mean change from Baseline (LS mean difference)", "setting": "[1]; [4]", "value": 0.2}, {"measurement": "LVEDD, placebo-corrected mean change from Baseline (LS mean difference)", "setting": "[1]; [4]", "value": "−0.3", "unit": "mm"}, {"measurement": "LVEDV, placebo-corrected mean change from Baseline (LS mean difference)", "setting": "[1]; [4]", "value": -1.9, "unit": "mL"}, {"measurement": "LVEF, placebo-corrected mean change from Baseline (LS mean difference)", "setting": "[1]; [4]", "value": 4.4, "unit": "%"}, {"measurement": "LVESD, placebo-corrected mean change from Baseline (LS mean difference)", "setting": "[1]; [4]", "value": "−1.8", "unit": "mm"}, {"measurement": "LVESV, placebo-corrected mean change from Baseline (LS mean difference)", "setting": "[1]; [4]", "value": -3.5, "unit": "mL"}, {"measurement": "LVFS, placebo-corrected mean change from Baseline (LS mean difference)", "setting": "[1]; [4]", "value": 2.8, "unit": "%"}, {"measurement": "LVGLS, placebo-corrected mean change from Baseline (LS mean difference)", "setting": "[1]; [4]", "value": "−2.1", "unit": "%"}, {"measurement": "LVSV, placebo-corrected mean change from Baseline (LS mean difference)", "setting": "[1]; [4]", "value": 9.0, "unit": "mL"}, {"measurement": "SET, placebo-corrected mean change from Baseline (LS mean difference)", "setting": "[1]; [4]", "value": 36, "unit": "ms"}, {"measurement": "e′ lateral, placebo-corrected mean change from Baseline (LS mean difference)", "setting": "[1]; [4]", "value": -1, "unit": "cm/s"}, {"measurement": "exposure (Cmax) higher in fed vs fasted state", "setting": "[2]; 200 mg", "value": "~60", "unit": "%"}, {"measurement": "AUClast, Fasted LSGM", "setting": "[2]; 200 mg, N = 11", "value": 57400, "unit": "ng·h/mL"}, {"measurement": "Cmax, Fasted LSGM", "setting": "[2]; 200 mg, N = 11", "value": 2300, "unit": "ng/mL"}, {"measurement": "Cmax, Fed LSGM", "setting": "[2]; 200 mg, N = 11", "value": 3640, "unit": "ng/mL"}, {"measurement": "AUCinf, Geometric Mean Ratio - Fed/Fasted", "setting": "[2]; 200 mg, N = 11, 90% CI 130.30-182.67", "value": "154.28 % of Reference"}, {"measurement": "AUClast, Geometric Mean Ratio - Fed/Fasted", "setting": "[2]; 200 mg, N = 11, 90% CI 131.11-180.92", "value": "154.02 % of Reference"}, {"measurement": "Cmax, Geometric Mean Ratio - Fed/Fasted", "setting": "[2]; 200 mg, N = 11, 90% CI 137.11-182.33", "value": "158.11 % of Reference"}, {"measurement": "Median (range) Tmax", "setting": "[2]; 200 mg, fed state", "value": 5.5, "unit": "h"}, {"measurement": "AUC0-t geometric mean ratio (fed/fasted)", "setting": "[2]; [5]", "value": 153.20, "unit": "%"}, {"measurement": "AUCinf geometric mean ratio (fed/fasted)", "setting": "[2]; [5]", "value": 153.63, "unit": "%"}, {"measurement": "Cmax geometric mean ratio (fed/fasted)", "setting": "[2]; [5]", "value": 156.43, "unit": "%"}, {"measurement": "AUCinf, Geometric Mean Ratio - Fed/Fasted", "setting": "[2]; [6]", "value": "153.63 % of Reference"}, {"measurement": "AUClast, Fasted LSGM", "setting": "[2]; [6]", "value": 59000, "unit": "ng·h/mL"}, {"measurement": "AUClast, Geometric Mean Ratio - Fed/Fasted", "setting": "[2]; [6]", "value": "153.20 % of Reference"}, {"measurement": "Cmax, Fasted LSGM", "setting": "[2]; [6]", "value": 2370, "unit": "ng/mL"}, {"measurement": "Cmax, Fed LSGM", "setting": "[2]; [6]", "value": 3700, "unit": "ng/mL"}, {"measurement": "Cmax, Geometric Mean Ratio - Fed/Fasted", "setting": "[2]; [6]", "value": "156.43 % of Reference"}, {"measurement": "MRT, Mean", "setting": "[2]; [7]", "value": 22.55, "unit": "h"}, {"measurement": "MRT, Median", "setting": "[2]; [7]", "value": 23.86, "unit": "h"}, {"measurement": "T1/2, z, Mean", "setting": "[2]; [7]", "value": 14.28, "unit": "h"}, {"measurement": "AUCinf, Median", "setting": "[2]; [8]", "value": 93950, "unit": "ng·h/mL"}, {"measurement": "AUClast, Geometric Mean", "setting": "[2]; [8]", "value": 88400, "unit": "ng·h/mL"}, {"measurement": "AUClast, Median", "setting": "[2]; [8]", "value": 89310, "unit": "ng·h/mL"}, {"measurement": "Cmax Geometric Mean", "setting": "[2]; [8]", "value": 3644, "unit": "ng/mL"}, {"measurement": "T1/2, z, Geometric Mean", "setting": "[2]; [8]", "value": 13.56, "unit": "h"}]}
